Consider 1 molecule from ChEMBL document CHEMBL3832052.

What is called Tmax is the time from dosing to the highest level.

A short description of this series: clinical. The following applies: human, in vivo, po.

Structures are written as SMILES.

`Cc1cc(NS(=O)(=O)c2ccc(N)cc2)no1` [SULFAMETHOXAZOLE]: the Tmax lay within 1 to 4 h.
